Measurements: US10968214B2, “KRas G12C inhibitors” (Eli Lilly and Company, priority 2018, dated 2021)
Like-named read-outs stand apart in the source and are kept apart here.

How the values were obtained:
A427 = test: CellTiterGlo Cell Proliferation Assay, A427; assay type: cell-based; settings: Homo sapiens, A-427, KRas G12D, lung, 96 hr
Description: (§1) A panel of tumor cell lines harboring KRas G12C or other KRas mutations are collected (Table 6). All cell lines are from ATCC or other sources indicated.
(§2) Typically cells are cultured in RPMI1640 or Dulbecco's modified Eagle's medium (DMEM, GIBCO) supplemented with 10% FBS (GIBCO, Invitrogen). For 2D culture cells (4×10^3/well) maintained in growth medium described above, are plated onto 96 well tissue culture plates Corning® Cat. 3603) a day before the treatment. For 3D culture 8000 cells/well are seeded onto 96 well ultra-low attachment tissue culture plates (Corning, #3474). The cells are treated compound for 96 hr, and then are analyzed for viability using the CellTiterGlo® Luminescent Cell Viability Assay® (Promega #G7572 for 2D and Promega #G9683 for 3D cultures) according to manufacturer's instructions and an EnVision™ plate reader. Nonlinear regression and sigmoidal dose-response curves are used to calculate the half maximal inhibitory concentration (IC50) with GraphPad Prism 4® software.

H460 = test: CellTiterGlo Cell Proliferation Assay, H460; assay type: cell-based; settings: Homo sapiens, NCI-H460, KRas Q61H, lung, 96 hr
Description: as §1, §2

[1] = biological target: T1, active KRas in H358 xenograft tumors (Homo sapiens, UniProt P01116, G12C); test: In vivo target inhibition/PD, H358 xenograft, active KRas; design: species or system mouse; settings: for inhibition at 10 mg/kg: 10 mg/kg single dose; for inhibition at 30 mg/kg: 30 mg/kg single dose
T1 construct: from tissue; host or cells: H358 xenograft tumours from nude mice
Description: To evaluate in vivo target inhibition and anti-tumor efficacy of a compound, Human lung cancer cells, H358 or H2122 are implanted into nude mice xenograft tumor models. Either H358 or H2122 cells (10×10^6 in a 1:1 Matrigel® mix, 0.2 mL total volume) are implanted by subcutaneous injection in hind leg of nude female mice (Harlan Laboratories). A total of 5 mice each group are used for efficacy study, and a total of 3-4 mice each group are used for target engagement and PD study. Treatment is initiated with oral administration (gavage) of a test compound or vehicle (20% Captisol®, 25 mM phosphate, pH 2.0 in 0.2 mL volume when the tumor size reaches approximately […]. Tumor growth and body weight are monitored over time to evaluate efficacy and signs of toxicity. Bidimensional measurements of tumors are performed twice a week and tumor volumes are calculated based on mid-axis length and mid-axis width. Tumor volume data are transformed to a log scale to equalize variance across time and treatment groups. The log volume data are analyzed with a two-way repeated measures analysis of variance by time and treatment using the mixed procedures in SAS software (version 8.2). The correlation model for the repeated measures is spatial power. Treated groups are compared to the control group at each time point. The mixed procedure is also used separately for each treatment group to calculate adjusted means and standard errors at each time point. Both analyses account for the autocorrelation within each animal. The adjusted means and standard errors are plotted for each treatment group versus time.
For in vivo target inhibition and PD analysis, tumors are ground by mortar and pestle on dry ice and tumor fragments are added to 800 μL of lysis buffer containing 1% Triton X100, 25 mM Tris pH 7.5, 150 mM NaCl, 1 mM EDTA, and 1 mM EGTA with Halt protease and phosphatase inhibitor cocktail (Thermo Scientific, cat. no. 1861281) in lysing matrix D tubes (MP Biomedical®, cat. no. 6913-500) with one additional large bead (MP Biomedical® ¼″ ceramic sphere bead cat. no. 6540-412) per tube. Tumor fragments are homogenized in a Thermo Bio101® fast prep (FP120) at setting 4 for […] while cold for a total of 2 times. Lysates are spun at 14,000 rpm for 10 min at 4° C. to clarify. Protein estimation is done on the lysate supernatant using a BioRad Dc® protein assay and lysates are diluted in complete lysis/binding buffer from the Ras GTPase Chemi ELISA Kit® (Active Motif, cat. no. 52097). The active KRas ELISA was performed as follows: Glutathione-coated ELISA wells were incubated with diluted RAF1-GST in complete lysis/binding buffer for 1 hr at 4° C. with gentle agitation. Wells are washed 3 times with wash buffer and 100 μg of lysates are added to each well and incubated at RT for 1 hr with mild agitation. The wells are washed an additional 3 times, then primary antibody, diluted in antibody binding buffer, is added to each well. The plates are incubated for 1 hr. The wells are washed 3 more times before adding HRP-conjugated secondary antibody, diluted in antibody binding buffer, to each well. The plates are incubated at RT for 1 hr. ELISA wells are washed 4 times, chemiluminescent reagents is added and then luminescence is read. For pERK Meso Scale Discovery ELISA, 25 μg of protein containing 0.1% SDS is used; for pMEK Meso Scale Discovery ELISA, 50 μg of protein without SDS is used. Meso Scale Discovery Whole Cell Lysate Kits for pERK and pMEK are provided by Meso Scale Discovery.
The tumor samples are collected 4 hr post a single dose. The tumor lysates are prepared and the inhibition of pERK, pMEK, and active KRas is measured as described above.
After a single dose, the tumor samples are harvested at 2, 4, 8, 12 and 24 hr post doing. The tumor lysates are prepared and the inhibition of pERK, pMEK, and active KRas is measured as described above.

KYSE-410 xenograft = test: Anti-tumor growth activity, KYSE-410 esophageal xenograft; assay type: in vivo; settings: 28 Day, negative = regression
[2] = read-out: IC50 (μM) in 2 D cell proliferation
[3] = read-out: IC50 (μM) in 3 D spheroid cell proliferation
[4] = NCI-H358, mouse, 4 hr post dose, read-out: % Inhibition Active KRas
[5] = NCI-H358, mouse, time course, 2 hr, read-out: % Inhibition Active KRas
[6] = NCI-H358, mouse, time course, 4 hr, read-out: % Inhibition Active KRas
[7] = NCI-H358, mouse, time course, 8 hr, read-out: % Inhibition Active KRas
[8] = NCI-H358, mouse, time course, 12 hr, read-out: % Inhibition Active KRas
[9] = NCI-H358, mouse, time course, 24 hr, read-out: % Inhibition Active KRas

T1 sequence (P01116 1-188 isoform P01116-2 G12C): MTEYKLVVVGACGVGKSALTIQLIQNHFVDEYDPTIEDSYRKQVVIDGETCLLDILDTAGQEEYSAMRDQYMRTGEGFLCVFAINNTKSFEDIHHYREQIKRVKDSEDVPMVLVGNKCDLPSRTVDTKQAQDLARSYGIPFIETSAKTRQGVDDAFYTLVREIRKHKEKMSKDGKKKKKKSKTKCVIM

IC50 (H460; [2]): 11.6 µM
IC50 (H460; [3]): 6.07 µM
inhibition at 1 mg/kg ([1]; NCI-H358, mouse, 1 mg/kg single dose, 4 hr post dose): -1.9%
inhibition at 3 mg/kg ([1]; NCI-H358, mouse, 3 mg/kg single dose, 4 hr post dose): -2.9%
inhibition at 10 mg/kg [1, 4]: 40.9%
inhibition at 10 mg/kg ([1]; NCI-H358, mouse, from 2-24 hr, read-out: active Kras inhibition): 21 to 61%
inhibition at 30 mg/kg [1, 4]: 83.2%
inhibition at 30 mg/kg ([1]; NCI-H358, mouse, from 2-24 hr, read-out: active KRas inhibition): 29 to 70%
inhibition at 100 mg/kg ([1]; NCI-H358, mouse, 100 mg/kg single dose, 4 hr post dose): 87.4%
inhibition at 10 mg/kg [1, 5]: 26.1%
inhibition at 10 mg/kg [1, 6]: 32.9%
inhibition at 10 mg/kg [1, 7]: 30%
inhibition at 10 mg/kg [1, 8]: 61.1%
inhibition at 10 mg/kg [1, 9]: 21.5%
inhibition at 30 mg/kg [1, 5]: 70.4%
inhibition at 30 mg/kg [1, 6]: 65%
inhibition at 30 mg/kg [1, 7]: 66.5%
inhibition at 30 mg/kg [1, 8]: 28.7%
inhibition at 30 mg/kg [1, 9]: 37.7%
EC50 ([1]; plasma exposure by mass spectrum, read-out: plasma concentration to achieve 50% target inhibition (TEC50), active KRas): 0.574 µM
dose to achieve 50% target inhibition (TED50), active KRas ([1]; single dose, 4 hr): 11.2 mg/kg
SMILES: C=CC(=O)N1CCN(c2ncnc3c(F)c(-c4ccc(F)c5sc(N)nc45)c(Cl)cc23)CC1 [Example 1, 1-{4-[7-(2-Amino-7-fluoro-1,3-benzothiazol-4-yl)-6-chloro-8-fluoroquinazolin-4-yl]piperazin-1-yl}prop-2-en-1-one]
IC50 (A427; [2]): 10.1 µM
IC50 (A427; [3]): 18.6 µM
Tumor Growth Inhibition (%) or Regression (−%) (KYSE-410 xenograft; 15 mg/kg BID): 21.2%
Tumor Growth Inhibition (%) or Regression (−%) (KYSE-410 xenograft; 30 mg/kg BID): −9%
Tumor Growth Inhibition (%) or Regression (−%) (KYSE-410 xenograft; 30 mg/kg QD): 74.5%
